In general, IC50 refers to the point on the concentration scale where inhibition reaches its midpoint. The ΔTm is the shift of the melting midpoint relative to a reference. One may read the Tm as the temperature at the midpoint of the melting transition.

Where “and” joins values, the source holds several entries; their conditions need not be identical. Equal values may be shown once. Read-outs that look alike come from different tables or passages of the source.

A short description of data set [1]: Precipitation / turbidity of compound in assay buffer (600 nm). Type of data set: physicochemical. The settings on record: activity screening buffer, 500 µM. On the procedure:
1.3 µL of derivatives of 4-phenylthiazol-2-amine in 100% DMSO were mixed with 237.7 µL of a mastermix of WT PfMDH previously incubated with NAD+. The final compound concentration used in this screening was 500 µM in the presence of 0.5% (v/v) DMSO. The microplate was sealed with silver foil for 1-h incubation at 25–35 °C. Finally, reactions in both the samples and control wells were started upon the addition of 13.0 µL of 5 mM malate). At the end of the experiments, the reaction of the plate was spectrophotometrically assayed at 600 nm in order to identify turbidity due to the low solubility of the compound. All measurements were performed in duplicate.

Data set [2] addresses T1, PfMDH (Plasmodium falciparum, UniProt Q6VVP7).
T1 construct: The full-length WT PfMDH gene was cloned into pETM-13; made in house; host or cells: E. coli Rosetta 2 (DE3) pLysS
The settings on record: Supplementary Table 2; ref 10.1021/jm070336k; cited from earlier work.

In data set [3] the target is T1, PfMDH. The experiment in a line: Thermal shift assay (TSA). In kind it is binding. As to the method:
The TSA experiment was conducted in a BioRad CSX 96 (Biorad). Each reaction consisted of 1 mM of compound (100 mM stock in 100% (v/v) DMSO) and 10 μM PfMDH in 100 mM Na–phosphate buffer pH 7.4, 400 mM NaCl, and 10× Sypro Orange (Invitrogen) for a total volume of 100 μl. Control experiments were performed with 1% (v/v) DMSO. Inflection points were determined using BioRad CFX96™ control software. Generally, a temperature increase of over 1 °C is interpreted as a result of the stabilization of the protein-ligand interaction. On the contrary, a negative shift is considered a destabilization caused by the fragment.

For another data set, the system named is MDH. The settings on record: cited from earlier work.
Data set [4] has as its target T1, PfMDH. The experiment in a line: Small-angle X-ray scattering (SAXS) of PfMDH with compounds. The settings on record: 1 mM compound; for radius of gyration Rg of PfMDH in complex: apo PfMDH 33.78 ± 5.51. As to the method: X-ray scattering experiments were performed using the laboratory SAXS system Xeuss 2.0 (XENOCS, Grenoble, France) equipped with a MetalJet D2 microfocus X-ray generator (0.134 nm wavelength). The protein solution at a concentration of 2.49 mg ml^−1 was mixed with 4PA derivatives at a concentration of 1 mM, incubated for 1 h at room temperature, and spun at 16,000 rpm (Eppendorf Centrifuge 5415R) to remove any potential aggregates prior to injection into the low-noise liquid sample cell. SAXS data were collected in 3–4 subsequent 10 min long frames using a Pilatus3R 1 M hybrid photon counting detector (Dectris, Switzerland). Data reduction and buffer subtraction procedures were performed using the Foxtrot package. Scattering profiles were assessed for radiation-damaged and averaged. Structural parameters were calculated in Primus from the ATSAS package. The distance distribution function was calculated using GNOM[58].

The target of data set [5] is T1, PfMDH. The experiment in a line: Dynamic light scattering (DLS), aggregation. Conditions: PfMDH samples incubated with compound. On the procedure: Measurements were performed on Litesizer 500 (Anton Paar). Samples were incubated with the highest concentrations of compounds for 2 h at room temperature. Prior to measurements, samples were spun for 5 min at 16,000 rpm (Eppendorf Centrifuge 5415R) to remove aggregates.

Another data set concerns HsMDH1. Also on record: method as in earlier work. Conditions: Supplementary Table 1; ref 10.1021/acs.jmedchem.7b01231; cited from earlier work.
The next data set relates to HsMDH2. Conditions: Supplementary Table 1, cited from earlier work.
The mark [6] stands for this setting: ref 10.1021/acs.jmedchem.7b01231.

T1 sequence (Q6VVP7 entry or part of it): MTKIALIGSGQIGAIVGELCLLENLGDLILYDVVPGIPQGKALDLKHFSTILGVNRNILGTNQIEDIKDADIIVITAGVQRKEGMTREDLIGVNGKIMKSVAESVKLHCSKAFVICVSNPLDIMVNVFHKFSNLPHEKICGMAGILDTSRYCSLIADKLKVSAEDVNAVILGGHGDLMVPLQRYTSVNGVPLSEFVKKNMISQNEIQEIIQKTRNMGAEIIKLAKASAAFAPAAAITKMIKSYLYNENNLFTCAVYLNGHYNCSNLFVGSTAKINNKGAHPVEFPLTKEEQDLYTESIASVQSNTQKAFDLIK

Regarding `CC(C)c1ccc(-c2csc(N)n2)cc1` [compound 10a], in data set [1], the “precipitation of compound in the buffer” value is given as “precipitation of compound was observed”. Regarding `O=C(O)C(=O)Nc1ccc(CCOc2cc(O)c3c(=O)cc(C(=O)O)oc3c2)cc1` [Inhibitor 2], on PfMDH [2], the IC50 was > 241 µM. For “4-(3-(trifluoromethyl)phenyl)thiazol-2-amine [compound 8a]”, the ΔTm at PfMDH [3] (1 mM compound vs DMSO control) is −10 °C. Further, on PfMDH [3] (1 mM compound, 10 μM PfMDH, DMSO control Tm 58), the Tm came out at 48.0 ± 1.0 °C. Also, the “precipitation of compound in the buffer” value in data set [1] is on record as “precipitation of compound was observed”. Take `CC(=O)c1c(O)c(C)c(O)c(Cc2c(O)c3c(c(C(=O)/C=C/c4ccccc4)c2O)OC(C)(C)C=C3)c1O` [rottlerin]: the IC50 in the data set with MDH is 0.7 µM. As for `Nc1nc(-c2ccc(Br)cc2)cs1` [compound 6a], at PfMDH [4] (apo 33.93 ± 4), the “Rg from Dmax analysis” value was 34.52 ± 4.3 Å. Also, the Dmax on PfMDH [4] (apo 104.75) is recorded as 113.74 Å. Besides, the “MW estimate of PfMDH complex” value at PfMDH [4] (apo 113.65) is listed as 91.175 kDa. For the same compound, the “radius of gyration Rg of PfMDH in complex” value at PfMDH [4] is 36.4 ± 3.15 Å and 36.4 Å. For the same compound, the “aggregation in DLS” value on PfMDH [5] was “no aggregation in DLS”. The “precipitation of compound in the buffer” value in data set [1] is “precipitation of compound was observed”. In the case of `COC(=O)c1cccc(NC(=O)CCCOc2ccc(C(C)(C)CC(C)(C)C)cc2)c1` [Inhibitor 14b], the IC50 was 1.18 ± 0.08 µM in the data set with HsMDH1 and 1.11 ± 0.01 µM with HsMDH2 (setting [6]).

Regarding `O=C1Cc2c([nH]c3ccc(Br)cc23)-c2ccccc2N1Cc1ccc(Cl)c(Cl)c1` [Inhibitor 4h], the IC50 in the data set with HsMDH2 (ref 10.1016/j.ejmech.2009.10.018) is 1.1 ± 0.1 µM. Take `Nc1nc(-c2ccc([N+](=O)[O-])cc2)cs1` [compound 2a]: on PfMDH [4], the “radius of gyration Rg of PfMDH in complex” value is 33.78 ± 0.83 Å and 33.8 Å. Further, the “aggregation in DLS” value at PfMDH [5] is on record as “no aggregation in DLS”. Also, in data set [1], the “precipitation of compound in the buffer” value is on record as “precipitation of compound was observed”. In the case of `COc1cc(CCOc2cc(O)c3c(=O)cc(C(=O)O)oc3c2)ccc1NC(=O)C(=O)O` [Inhibitor 4], the IC50 at PfMDH [2] is > 225 µM. Turning to `NC(=O)C(=O)O` [Oxamate], the IC50 at PfMDH [2] was > 2000 µM. `O=c1c(O)c(-c2ccc(O)c(O)c2)oc2cc(O)cc(O)c12` [quercetin]: the IC50 in the data set on MDH is 6 µM. In the case of `COC(=O)c1cccc(NC(=O)CCOc2ccc(C(C)(C)CC(C)(C)C)cc2)c1` [Inhibitor 16c], the values for the IC50 in the data set with HsMDH1 and in the data set with HsMDH2 (setting [6]) were 1.07 ± 0.07 µM and 1.06 ± 0.03 µM, respectively.

For the compound `COc1ccc(CNC(=O)c2cc(=O)c3c(O)cc(OCCc4ccc(NC(=O)C(=O)O)c(OC)c4)cc3o2)cc1` [Inhibitor 7], the IC50 at PfMDH [2] is 2.66 ± 0.24 µM. On to `COC(=O)c1ccc(O)c(NC(=O)CCCOc2ccc(C(C)(C)CC(C)(C)C)cc2)c1` [Inhibitor 14c], for which the IC50 in the data set with HsMDH2 (setting [6]) is 1.11 ± 0.01 µM.
